Experimental data published in PubChem BioAssay (NCI).
“And” between values parts separate entries of the source, which are not always exact repeats. Identical values can stand only once.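 Exposure lasted 48 hours, with cells grown in 96-well plates and compounds tested at five concentrations. GI50: concentration for 50% inhibition of growth. TGI: total growth inhibition.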

Assays:
Assay in all cases: NCI anticancer screen, dose series, 48 h
KM12 colon = system: KM12 colon
SK-MEL-2 melanoma = system: SK-MEL-2 melanoma
RXF 393 renal = system: RXF 393 renal
T-47D breast = system: T-47D breast
OVCAR-3 ovarian = system: OVCAR-3 ovarian
ACHN renal = system: ACHN renal
A549 NSCLC = system: A549 NSCLC
DU-145 prostate = system: DU-145 prostate
MCF7 breast = system: MCF7 breast
M14 melanoma = system: M14 melanoma

CC(=O)c1cc(-c2ccccc2N)n(-c2ccc3c(c2)OCO3)c1C
GI50 (KM12 colon): 0.295 µM
TGI (KM12 colon): > 37.7 µM
GI50 (SK-MEL-2 melanoma): 0.31 µM
GI50 (RXF 393 renal): 0.208 µM
TGI (RXF 393 renal): 0.681 µM
GI50 (T-47D breast): 0.852 µM
TGI (T-47D breast): > 100 µM
GI50 (OVCAR-3 ovarian): 0.066 µM
TGI (OVCAR-3 ovarian): 0.537 µM
GI50 (ACHN renal): 0.398 µM
TGI (ACHN renal): > 100 µM
GI50 (A549 NSCLC): 0.313 µM
TGI (A549 NSCLC): > 100 µM
GI50 (DU-145 prostate): 0.0408 µM
TGI (DU-145 prostate): > 100 µM
GI50 (MCF7 breast): 0.32 µM
TGI (MCF7 breast): > 100 µM
GI50 (M14 melanoma): 0.279 µM
TGI (M14 melanoma): 75 µM

COC(=O)[C@H]1[C@H]2C[C@@H]3c4[nH]c5cc(OC)ccc5c4CCN3C[C@H]2C[C@@H](OC(=O)/C=C/c2cc(OC)c(OC)c(OC)c2)[C@@H]1OC
GI50 (KM12 colon): 4.44 µM
TGI (KM12 colon): 28.5 µM
GI50 (SK-MEL-2 melanoma): 5.73 µM
TGI (SK-MEL-2 melanoma): 19.8 µM
GI50 (RXF 393 renal): 11 µM
TGI (RXF 393 renal): 31.5 µM
GI50 (T-47D breast): 3.15 µM
TGI (T-47D breast): 9.54 µM
GI50 (OVCAR-3 ovarian): 2.62 µM
TGI (OVCAR-3 ovarian): 6.2 µM
GI50 (ACHN renal): 4.05 µM
TGI (ACHN renal): 21.5 µM
GI50 (A549 NSCLC): 8.89 µM
TGI (A549 NSCLC): > 100 µM
GI50 (DU-145 prostate): 5.88 µM
TGI (DU-145 prostate): > 100 µM
GI50 (MCF7 breast): 4.75 µM
TGI (MCF7 breast): 23 µM
GI50 (M14 melanoma): 6.24 µM
TGI (M14 melanoma): 20 µM

Cc1nn(CNc2ccccc2C(F)(F)F)c(=S)n1/N=C/c1ccc(F)cc1
GI50 (KM12 colon): > 100 µM
TGI (KM12 colon): > 100 µM
GI50 (SK-MEL-2 melanoma): > 100 µM
TGI (SK-MEL-2 melanoma): > 100 µM
GI50 (RXF 393 renal): > 100 µM
TGI (RXF 393 renal): > 100 µM
GI50 (T-47D breast): > 100 µM
TGI (T-47D breast): > 100 µM
GI50 (OVCAR-3 ovarian): > 100 µM
TGI (OVCAR-3 ovarian): > 100 µM
GI50 (ACHN renal): > 100 µM
TGI (ACHN renal): > 100 µM
GI50 (A549 NSCLC): > 100 µM
TGI (A549 NSCLC): > 100 µM
GI50 (DU-145 prostate): > 100 µM
TGI (DU-145 prostate): > 100 µM
GI50 (MCF7 breast): 60.3 µM
TGI (MCF7 breast): > 100 µM
GI50 (M14 melanoma): 87.9 µM
TGI (M14 melanoma): > 100 µM

COc1cc2c(c(OC)c1OC)-c1ccc(O)c(=O)cc1[C@@H](NC(C)=O)CC2
GI50 (KM12 colon): 8.68 µM
TGI (KM12 colon): > 100 µM and 32.8 µM
GI50 (SK-MEL-2 melanoma): 20 µM
TGI (SK-MEL-2 melanoma): > 100 µM
GI50 (RXF 393 renal): 14.6 µM
TGI (RXF 393 renal): > 100 µM
GI50 (T-47D breast): 8.84 µM
TGI (T-47D breast): > 100 µM
GI50 (OVCAR-3 ovarian): 4.35 µM
TGI (OVCAR-3 ovarian): > 100 µM
GI50 (ACHN renal): 5.61 µM
TGI (ACHN renal): > 100 µM and 44.5 µM
GI50 (A549 NSCLC): 10.1 µM
TGI (A549 NSCLC): 89.3 µM and > 100 µM
GI50 (DU-145 prostate): 9.82 µM
TGI (DU-145 prostate): > 100 µM
GI50 (MCF7 breast): 4.37 µM
TGI (MCF7 breast): > 100 µM and 63.5 µM
GI50 (M14 melanoma): 9.54 µM
TGI (M14 melanoma): 60.7 µM and 78.2 µM

COc1cc2c3c(c1OC)C1(C=CC(=O)C=C1)CC3NCC2 (stereo not drawn)
TGI (KM12 colon): > 100 µM
TGI (SK-MEL-2 melanoma): > 100 µM
TGI (RXF 393 renal): > 100 µM
TGI (T-47D breast): > 100 µM
TGI (OVCAR-3 ovarian): > 100 µM
TGI (ACHN renal): > 100 µM
TGI (A549 NSCLC): > 100 µM
TGI (DU-145 prostate): > 100 µM
TGI (MCF7 breast): > 100 µM
TGI (M14 melanoma): > 100 µM

CCOC(=O)Cc1csc(N=Nc2c(O)[nH]c3ccccc23)n1
TGI (KM12 colon): > 100 µM
TGI (SK-MEL-2 melanoma): > 100 µM
TGI (RXF 393 renal): > 100 µM
TGI (T-47D breast): > 100 µM
TGI (OVCAR-3 ovarian): > 100 µM
TGI (ACHN renal): > 100 µM
TGI (A549 NSCLC): > 100 µM
TGI (DU-145 prostate): > 100 µM
TGI (MCF7 breast): > 100 µM
TGI (M14 melanoma): > 100 µM

CCCCCCNC(=O)Oc1ccc(/C(=C(/C)Cc2ccc(OC)cc2)c2ccc(OCCN(C)C)cc2)cc1
GI50 (KM12 colon): 4.98 µM
TGI (KM12 colon): 10.1 µM
GI50 (SK-MEL-2 melanoma): 5.91 µM
TGI (SK-MEL-2 melanoma): 11 µM
GI50 (RXF 393 renal): 4.36 µM
TGI (RXF 393 renal): 9.23 µM
GI50 (T-47D breast): 1.41 µM
TGI (T-47D breast): 7.12 µM
GI50 (OVCAR-3 ovarian): 4.93 µM
TGI (OVCAR-3 ovarian): 9.79 µM
GI50 (ACHN renal): 5.43 µM
TGI (ACHN renal): 9.99 µM
GI50 (A549 NSCLC): 5.65 µM
TGI (A549 NSCLC): 10.8 µM
GI50 (DU-145 prostate): 5.55 µM
TGI (DU-145 prostate): 10.4 µM
GI50 (MCF7 breast): 1.29 µM
TGI (MCF7 breast): 6.98 µM
GI50 (M14 melanoma): 6.18 µM
TGI (M14 melanoma): 11.5 µM

COc1ccc([C@@H](O)c2cc(-c3ncnc4cc(N5CCOCC5)ccc34)c(F)cc2Cl)nn1
GI50 (KM12 colon): 5.47 µM
TGI (KM12 colon): 24.1 µM
GI50 (SK-MEL-2 melanoma): 7.37 µM
TGI (SK-MEL-2 melanoma): 25.3 µM
GI50 (RXF 393 renal): 0.678 µM
TGI (RXF 393 renal): 11.6 µM
GI50 (T-47D breast): 0.228 µM
TGI (T-47D breast): 1.44 µM
GI50 (OVCAR-3 ovarian): 1.41 µM
TGI (OVCAR-3 ovarian): 20.3 µM
GI50 (ACHN renal): 2.53 µM
TGI (ACHN renal): 91 µM
GI50 (A549 NSCLC): 2.77 µM
TGI (A549 NSCLC): 21 µM
GI50 (DU-145 prostate): 3.89 µM
TGI (DU-145 prostate): > 100 µM
GI50 (MCF7 breast): 0.592 µM
TGI (MCF7 breast): 15.7 µM
GI50 (M14 melanoma): 4.91 µM
TGI (M14 melanoma): 28.5 µM

N=c1ccc2nc3c(cc(N)c4ccccc43)oc-2c1
GI50 (KM12 colon): 0.236 µM
TGI (KM12 colon): 0.845 µM
GI50 (SK-MEL-2 melanoma): 0.407 µM
TGI (SK-MEL-2 melanoma): 1.61 µM
GI50 (RXF 393 renal): 0.71 µM
TGI (RXF 393 renal): 2.32 µM
GI50 (T-47D breast): 1.09 µM
TGI (T-47D breast): 2.79 µM
GI50 (OVCAR-3 ovarian): 0.0265 µM
TGI (OVCAR-3 ovarian): 0.0834 µM
GI50 (ACHN renal): 0.325 µM
TGI (ACHN renal): 1.44 µM
GI50 (A549 NSCLC): 0.295 µM
TGI (A549 NSCLC): 1.05 µM
GI50 (DU-145 prostate): 0.265 µM
TGI (DU-145 prostate): 0.692 µM
GI50 (MCF7 breast): 0.162 µM
TGI (MCF7 breast): 0.342 µM
GI50 (M14 melanoma): 0.164 µM
TGI (M14 melanoma): 0.338 µM

CN(C)CCCc1c2ccccc2nc2ccc(Cl)cc12
TGI (KM12 colon): 32.5 µM
TGI (SK-MEL-2 melanoma): 34.8 µM
TGI (RXF 393 renal): 28.8 µM
TGI (T-47D breast): > 100 µM
TGI (OVCAR-3 ovarian): 57.7 µM
TGI (ACHN renal): 33.6 µM
TGI (A549 NSCLC): 28.3 µM
TGI (DU-145 prostate): 58.7 µM
TGI (MCF7 breast): 23.7 µM
TGI (M14 melanoma): 27.8 µM

Cc1ccc2sc3ccc(N)cc3c(=O)c2c1
TGI (KM12 colon): > 100 µM
TGI (SK-MEL-2 melanoma): > 100 µM
TGI (RXF 393 renal): > 100 µM
TGI (T-47D breast): 78.5 µM
TGI (OVCAR-3 ovarian): > 100 µM
TGI (ACHN renal): > 100 µM
TGI (A549 NSCLC): > 100 µM
TGI (DU-145 prostate): > 100 µM
TGI (MCF7 breast): > 100 µM
TGI (M14 melanoma): > 100 µM

CC12CC=CCC1CCC1C2CCC2(C)C(c3ccc(=O)oc3)CCC12O (stereo not drawn)
GI50 (KM12 colon): 0.315 µM
TGI (KM12 colon): 1.55 µM
GI50 (SK-MEL-2 melanoma): 0.24 µM
TGI (SK-MEL-2 melanoma): 0.741 µM
GI50 (RXF 393 renal): 0.0174 µM
TGI (RXF 393 renal): 0.0501 µM
GI50 (T-47D breast): 0.23 µM
TGI (T-47D breast): 0.887 µM
GI50 (OVCAR-3 ovarian): 0.0566 µM
TGI (OVCAR-3 ovarian): 0.282 µM
GI50 (ACHN renal): 0.0369 µM
TGI (ACHN renal): 0.138 µM
GI50 (A549 NSCLC): 0.032 µM
TGI (A549 NSCLC): 0.119 µM
GI50 (DU-145 prostate): 0.0448 µM
TGI (DU-145 prostate): 0.168 µM
GI50 (MCF7 breast): 0.0794 µM
TGI (MCF7 breast): 0.961 µM
GI50 (M14 melanoma): 0.113 µM
TGI (M14 melanoma): 0.404 µM

COC(=O)[C@]1(C)CCC[C@@]2(C)[C@@H]3C[C@@H]4[C@H]5C[C@@]3(CC[C@@H]21)C[C@@]45C
TGI (SK-MEL-2 melanoma): 30.9 µM
TGI (RXF 393 renal): 38.2 µM
TGI (T-47D breast): 62.2 µM
TGI (OVCAR-3 ovarian): 32.7 µM
TGI (ACHN renal): 29.2 µM
TGI (A549 NSCLC): 28 µM
TGI (DU-145 prostate): 65.9 µM
TGI (MCF7 breast): 30.3 µM
TGI (M14 melanoma): 38.8 µM

O=C(N/N=C/c1ccc(Cl)cc1)c1[nH]c2ccc(Cl)cc2c1-c1ccccc1
GI50 (KM12 colon): 0.181 µM
TGI (KM12 colon): 0.568 µM
GI50 (SK-MEL-2 melanoma): 0.332 µM
TGI (SK-MEL-2 melanoma): 35.5 µM
GI50 (RXF 393 renal): 0.123 µM
TGI (RXF 393 renal): 1.51 µM
GI50 (T-47D breast): 38.2 µM
TGI (T-47D breast): > 100 µM
GI50 (OVCAR-3 ovarian): 0.0265 µM
TGI (OVCAR-3 ovarian): 0.0584 µM
GI50 (ACHN renal): 0.199 µM
TGI (ACHN renal): > 45.3 µM
GI50 (A549 NSCLC): 0.348 µM
TGI (A549 NSCLC): 29.3 µM
GI50 (DU-145 prostate): 0.104 µM
TGI (DU-145 prostate): 0.367 µM
GI50 (MCF7 breast): 0.115 µM
TGI (MCF7 breast): 21.7 µM
GI50 (M14 melanoma): 0.0937 µM
TGI (M14 melanoma): 18.5 µM
